Source: patent US10688084B2 (priority 2016, dated 2020)
Like-named read-outs stand apart in the source and are kept apart here.

Key:
[1] = tested on: Wistar rats; test: Gastric toxicity (ulcerogenic effect), single intragastric administration, 4-point scale; format: in vivo, rat; conditions: for Gastrotoxic effect (averaged), points: 2000 mg/kg single intragastric, 3 hours
Procedure: In the study of gastric toxicity were taken female and male Wistar rats aged 6-7 weeks, with a body mass of 180-220 g. The number of animals in each group was 10.
Three hours after the administration of the suspension of the test substance at a dose of 2000 mg/kg (in 0.5% aqueous solution of Tween-80), the animals were euthanized; their stomachs were removed, dissected along the lesser curvature, and washed in physiological solution to remove the contents.
Evaluation of gastric toxicity was performed on a 4-point scale:
1—single minor injuries (1 or 2 point hemorrhages);
2—multiple injuries (erosion, spot hemorrhages);
3—significant and multiple injuries of the mucosa (erosion, hemorrhage);
4—gross injuries covering the entire surface of the mucosa (massive hemorrhages, erosion, perforations).
According to the results of the assessment, UD50 was determined—the dose of the tested substance causing gastrotoxic (ulcerogenic) effect corresponding to 2 points.
The introduction to rats is carried out in the amount of no more than 5 ml/200 g.
Animals were euthanized by carbon dioxide inhalation method.
At a single introduction of formula I compound at a dose of 2000 mg/kg, the gastrotoxic effect corresponded to an average of 0.6 points in male rats and 0.4 in females (Table 4).

[2] = tested on: cyclooxygenase (COX); test: COX activity assay (fluorometric kit, peroxidase activity) with skin fibroblast (HSF) cell lysate; format: biochemical; conditions: tested in presence of SC560 or celecoxib
[3] = tested on: Wistar rats; test: Acute (carrageenin) paw edema, anti-inflammatory activity in vivo; design: species or system rat; conditions: for ED50: Rattus norvegicus, read-out: ED50 acute inflammation; for Paw volume 0 / Paw volume 3 h: in mL (unit assumed); for Anti-inflammatory effect, %: control = 100.00
Procedure: The experiment was carried out using female and male Wistar rats aged 6-7 weeks with a body mass of 180-220 g. The number of animals in each group was 10.
The acute inflammatory reaction (edema) was reproduced by subplantar (under plantar or plantar aponeurosis) administration of 0.1 ml of 1% carrageenin solution (sulfated polysaccharide from Irish sea moss). The severity of the inflammatory reaction was assessed 3 hours after the induction of inflammation by a change in the volume of the paw (oncometric). The substance of formula I was administered into the stomach with the probe 1 hour before the introduction of the 1% solution of carrageenin. A 0.5% Tween-80 solution was used as a negative control. The anti-inflammatory effect, assessed by a decrease in edema, was expressed as a percentage of the control. According to the results of the action of four doses of the analyte, the calculation of ED50 was performed.
The introduction to rats was carried out in the amount of no more than 1 ml/100 g. The concentration of the resulting solution was 5 mg/ml.
Animals were euthanized by inhalation of carbon dioxide.

[4] = tested on: Wistar rats; format: in vivo
Procedure: In the study of antipyretic properties of the formula I compound, were taken female and male Wistar rats aged 6-7 weeks, with a body mass of 180-220 g. The number of animals in each group was 10.
The febrile reaction was caused by subcutaneous administration of a 20% suspension of baking yeast. The rectal temperature was measured with an electrothermometer prior to the introduction of yeast and 18 hours after it (the difference of these measurements is the estimated hyperthermic reaction). The preparation was administered to animals at the peak of hyperthermia once (after 18 hours). The antipyretic effect was evaluated by hyperthermia decrease 2 hours after the injection of the test substance, and then the effect dynamics was recorded at hourly intervals for 7 hours.
The introduction to rats was carried out in the amount of no more than 1 ml/100 g. The concentration of the resulting solution was 7.5 mg/ml.
The difference in temperature after preparation administration and after 18 hours of induction with yeast was taken as the parameter of hyperthermia decrease.
Animals were observed individually after administration throughout the study. […] Wilcoxon nonparametric criterion was used for statistical comparison of experimental groups. Differences were determined at the 0.05 level of significance. The statistical analysis was carried out using the R-studio program.

[5] = mean value without sex distinction
[6] = female rats, 5 mg/kg intragastric
[7] = female rats, 10 mg/kg intragastric
[8] = female rats, 20 mg/kg intragastric
[9] = female rats, 50 mg/kg intragastric
[10] = male rats, 5 mg/kg intragastric
[11] = male rats, 10 mg/kg intragastric
[12] = male rats, 20 mg/kg intragastric
[13] = male rats, 50 mg/kg intragastric

Compound: COc1ccc2cc([C@H](C)C(=O)OCc3cnc(C)c(OC(=O)[C@@H](C)c4ccc5cc(OC)ccc5c4)c3COC(=O)[C@@H](C)c3ccc4cc(OC)ccc4c3)ccc2c1 [Compound of formula I, 3-((S)-2-(6-methoxynaphth-2-yl)propanoiloxy)-4,5-bis (((S)-2-(6-methoxinaphtht-2-yl)propanoiloxy)methyl)-2-methylpyridinium (S)-2-(6-methoxynaphth-2-yl) propanoate]
- UD50 ([1]; females): >2000 mg/kg
- Gastrotoxic effect (averaged), points ([1]; females): 0.4 points
- UD50 ([1]; males): >2000 mg/kg
- Gastrotoxic effect (averaged), points ([1]; males): 0.6 points
- Times less gastrotoxic than naproxen (UD50) ([1]; vs naproxen): 40 times
- UD50 ([1]; without sex distinction): >2000 mg/kg
- UD50 ([1]; without sex distinction, listed as compound of formula I): > 2000 mg/kg
- COX isoform preference [2]: preferential inhibitory activity against the isoform of COX-2
- ED50 ([3]; females): 14 mg/kg
- ED50 ([3]; males): 23 mg/kg
- ED50 [3, 5]: 18.5 mg/kg
- Inflammatory edema decreased by, vs control group ([3]; female rats, 5 mg/kg): 13.37%
- Paw volume 0 [3, 6]: 1.00 ± 0.03
- Paw volume 3 h [3, 6]: 1.94 ± 0.20
- Anti-inflammatory effect, % ([3]; female rats, 5 mg/kg): 86.63 ± 17.71%
- Inflammatory edema decreased by, vs control group ([3]; female rats, 10 mg/kg): 38.64%
- Paw volume 0 [3, 7]: 0.96 ± 0.06
- Paw volume 3 h [3, 7]: 1.60 ± 0.16
- Anti-inflammatory effect, % ([3]; female rats, 10 mg/kg): 61.36 ± 17.12%
- Inflammatory edema decreased by, vs control group ([3]; female rats, 20 mg/kg): 67.89%
- Paw volume 0 [3, 8]: 0.91 ± 0.09
- Paw volume 3 h [3, 8]: 1.23 ± 0.20
- Anti-inflammatory effect, % ([3]; female rats, 20 mg/kg): 32.11 ± 15.06%
- Inflammatory edema decreased by, vs control group ([3]; female rats, 50 mg/kg): 65.47%
- Paw volume 0 [3, 9]: 0.91 ± 0.05
- Paw volume 3 h [3, 9]: 1.26 ± 0.23
- Anti-inflammatory effect, % ([3]; female rats, 50 mg/kg): 34.53 ± 18.52%
- Inflammatory edema decreased by, vs control group ([3]; male rats, 5 mg/kg): 12.39%
- Paw volume 0 [3, 10]: 0.89 ± 0.07
- Paw volume 3 h [3, 10]: 1.87 ± 0.21
- Anti-inflammatory effect, % ([3]; male rats, 5 mg/kg): 87.61 ± 19.75%
- Inflammatory edema decreased by, vs control group ([3]; male rats, 10 mg/kg): 23.57%
- Paw volume 0 [3, 11]: 0.93 ± 0.06
- Paw volume 3 h [3, 11]: 1.84 ± 0.23
- Anti-inflammatory effect, % ([3]; male rats, 10 mg/kg): 76.43 ± 22.74%
- Inflammatory edema decreased by, vs control group ([3]; male rats, 20 mg/kg): 51.25%
- Paw volume 0 [3, 12]: 0.93 ± 0.05
- Paw volume 3 h [3, 12]: 1.51 ± 0.16
- Anti-inflammatory effect, % ([3]; male rats, 20 mg/kg): 48.75 ± 16.39%
- Inflammatory edema decreased by, vs control group ([3]; male rats, 50 mg/kg): 62.34%
- Paw volume 0 [3, 13]: 1.04 ± 0.20
- Paw volume 3 h [3, 13]: 1.54 ± 0.45
- Anti-inflammatory effect, % ([3]; male rats, 50 mg/kg): 37.66 ± 19.16%
- ED50 acute inflammation [3, 5]: 19 mg/kg
- Antipyretic action ([4]; 20 mg/kg, both males and females): no antipyretic action was observed
- Δ t after 2 hours, (M ± SD) ([4]; 20 mg/kg, females): −0.07
- Δ t after 3 hours, (M ± SD) ([4]; 20 mg/kg, females): −0.27
- Δ t after 4 hours, (M ± SD) ([4]; 20 mg/kg, females): −0.35
- Δ t after 5 hours, (M ± SD) ([4]; 20 mg/kg, females): 0.34
- Δ t after 6 hours, (M ± SD) ([4]; 20 mg/kg, females): −0.01
- Δ t after 7 hours, (M ± SD) ([4]; 20 mg/kg, females): −0.08
- Δ t after 2 hours, (M ± SD) ([4]; 20 mg/kg, males): 0.13
- Δ t after 3 hours, (M ± SD) ([4]; 20 mg/kg, males): 0.24
- Δ t after 4 hours, (M ± SD) ([4]; 20 mg/kg, males): 0.02
- Δ t after 5 hours, (M ± SD) ([4]; 20 mg/kg, males): 0.1
- Δ t after 6 hours, (M ± SD) ([4]; 20 mg/kg, males): −0.21
- Δ t after 7 hours, (M ± SD) ([4]; 20 mg/kg, males): 0.04
- Level of temperature decrease ([4]; 50 mg/kg, 3-4 hours after administration): 0.34-0.97 °C
- Δ t after 2 hours, (M ± SD) ([4]; 50 mg/kg, females): 0.87
- Δ t after 3 hours, (M ± SD) ([4]; 50 mg/kg, females): 0.91
- Δ t after 4 hours, (M ± SD) ([4]; 50 mg/kg, females): 0.66
- Δ t after 5 hours, (M ± SD) ([4]; 50 mg/kg, females): 0.53
- Δ t after 6 hours, (M ± SD) ([4]; 50 mg/kg, females): 0.61
- Δ t after 7 hours, (M ± SD) ([4]; 50 mg/kg, females): 0.5
- Temperature lower than before the introduction by ([4]; 50 mg/kg, females, 2 and 3 hours after introduction): 0.9 °C
- Temperature decrease ([4]; 50 mg/kg, females, 4, 5, 6 and 7 hours after introduction): 0.5-0.7 °C
- Δ t after 2 hours, (M ± SD) ([4]; 50 mg/kg, males): 0.22
- Δ t after 3 hours, (M ± SD) ([4]; 50 mg/kg, males): 0.36
- Δ t after 4 hours, (M ± SD) ([4]; 50 mg/kg, males): 0.39
- Δ t after 5 hours, (M ± SD) ([4]; 50 mg/kg, males): 0.25
- Δ t after 6 hours, (M ± SD) ([4]; 50 mg/kg, males): 0.11
- Δ t after 7 hours, (M ± SD) ([4]; 50 mg/kg, males): 0.09
- Δ t after 2 hours, (M ± SD) ([4]; 75 mg/kg, females): 0.9
- Δ t after 3 hours, (M ± SD) ([4]; 75 mg/kg, females): 0.96
- Δ t after 4 hours, (M ± SD) ([4]; 75 mg/kg, females): 1.39
- Δ t after 5 hours, (M ± SD) ([4]; 75 mg/kg, females): 1.52
- Δ t after 6 hours, (M ± SD) ([4]; 75 mg/kg, females): 1.51
- Δ t after 7 hours, (M ± SD) ([4]; 75 mg/kg, females): 1.17
- Δ t after 2 hours, (M ± SD) ([4]; 75 mg/kg, males): 0.76
- Δ t after 3 hours, (M ± SD) ([4]; 75 mg/kg, males): 1.15
- Δ t after 4 hours, (M ± SD) ([4]; 75 mg/kg, males): 1.38
- Δ t after 5 hours, (M ± SD) ([4]; 75 mg/kg, males): 1.31
- Δ t after 6 hours, (M ± SD) ([4]; 75 mg/kg, males): 0.96
- Δ t after 7 hours, (M ± SD) ([4]; 75 mg/kg, males): 0.92
- Temperature less than before the introduction for ([4]; 75 mg/kg, throughout the experiment): 0.76-1.5 °C
